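Cultured in 96-well plates, cells were exposed to test compound for 48 hours across five concentrations. Here, GI50 denotes the concentration required for 50% inhibition of growth. TGI: total growth inhibition.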

This note sets out measurements from PubChem BioAssay (NCI).

Among the test systems are CCRF-CEM leukemia; EKVX NSCLC; HT29 colon; A549 NSCLC; CAKI-1 renal; NCI-H460 lung; ACHN renal; MALME-3M melanoma; U251 CNS; SF-295 CNS.
Common to all, as to experiment: growth of human tumour cells (NCI), 48 h

Regarding `OC(CC1SCCCS1)c1ccccc1` (centres undefined), the TGI in the experiment on CCRF-CEM leukemia, with EKVX NSCLC, in the experiment on HT29 colon, in the experiment on A549 NSCLC, in the experiment with CAKI-1 renal and in the experiment on NCI-H460 lung was above 100 µM throughout. The TGI with ACHN renal, with MALME-3M melanoma, with U251 CNS and in the experiment on SF-295 CNS was above 100 µM in each case.
As to `Cc1ccc(S(=O)(=O)N(C=O)N=C2CCN(Cc3ccccc3)CC2)cc1`, the TGI in the experiment with CCRF-CEM leukemia, with EKVX NSCLC, in the experiment with HT29 colon, with A549 NSCLC, in the experiment with CAKI-1 renal and in the experiment with NCI-H460 lung was above 100 µM each time. In addition, the TGI in the experiment with ACHN renal, with MALME-3M melanoma, in the experiment with U251 CNS and in the experiment on SF-295 CNS was above 100 µM each time.
Take `CN1CCN(C2CCN(C(=O)Nc3cc(Oc4ccc(NC(=O)C5(C(=O)Nc6ccc(F)cc6)CC5)c(F)c4)ccn3)CC2)CC1`: the GI50 with CCRF-CEM leukemia was 1.26 µM; in the experiment on EKVX NSCLC, above 1.99 µM; with HT29 colon, 0.806 µM; with A549 NSCLC it was 1.38 µM; in the experiment on CAKI-1 renal, 0.932 µM; with NCI-H460 lung it was 1.44 µM. Besides, the figures for the GI50 in the experiment on ACHN renal, with MALME-3M melanoma and in the experiment with SF-295 CNS were 1.3 µM, 0.703 µM and 0.47 µM, respectively. Also, the TGI was above 5.7 µM in the experiment on CCRF-CEM leukemia; above 8.76 µM in the experiment with EKVX NSCLC; above 4.38 µM in the experiment with HT29 colon; above 10 µM in the experiment with A549 NSCLC; above 10 µM in the experiment on CAKI-1 renal; above 10 µM in the experiment with NCI-H460 lung. The TGI is above 10 µM in the experiment with ACHN renal, 2.25 µM in the experiment on MALME-3M melanoma, above 10 µM in the experiment on U251 CNS and above 3.67 µM in the experiment with SF-295 CNS.
In the case of `CC1(C)C(C#N)C1C1=C(N2CCOCC2)[C@]2(C)C(OC(=O)c3ccccc3)CC[C@@H]2C1` (some centres undefined), the TGI in the experiment on CCRF-CEM leukemia, in the experiment on EKVX NSCLC, in the experiment on HT29 colon, in the experiment with A549 NSCLC, in the experiment with CAKI-1 renal and in the experiment with NCI-H460 lung was above 100 µM in each case. For the same molecule, the TGI in the experiment with ACHN renal, in the experiment with MALME-3M melanoma, with U251 CNS and with SF-295 CNS was above 100 µM throughout.
Regarding `CCN1CCN(C(=O)[C@@]2(C)CC[C@]3(C)CC[C@]4(C)C(=CC(=O)[C@@H]5[C@@]6(C)CC[C@H](OC7C[C@@H](O)[C@@H](O)C(C)O7)C(C)(C)[C@@H]6CC[C@]54C)[C@@H]3C2)CC1` (some centres undefined), the GI50 with CCRF-CEM leukemia is 1.52 µM; in the experiment with EKVX NSCLC, 3.51 µM; with HT29 colon, 1.08 µM; in the experiment on A549 NSCLC it was 1.76 µM; in the experiment with CAKI-1 renal, 7.81 µM; with NCI-H460 lung, 0.948 µM. In addition, the GI50 with ACHN renal is 0.91 µM; with MALME-3M melanoma, 0.917 µM; in the experiment on U251 CNS, 1.52 µM; in the experiment on SF-295 CNS, 0.934 µM. In addition, the TGI in the experiment with CCRF-CEM leukemia was 50 µM; with EKVX NSCLC, 10.4 µM; in the experiment on HT29 colon, 2.59 µM; with A549 NSCLC, 8.94 µM; in the experiment on CAKI-1 renal, 14.8 µM; with NCI-H460 lung, 1.86 µM. Further, the TGI is 1.69 µM with ACHN renal, 2.05 µM with MALME-3M melanoma, 5.68 µM in the experiment on U251 CNS and 1.83 µM in the experiment with SF-295 CNS.
On to `c1ccc(-c2nnc(-c3ccccn3)s2)nc1`, for which the GI50 in the experiment with CCRF-CEM leukemia, in the experiment on EKVX NSCLC, in the experiment with HT29 colon, with A549 NSCLC, in the experiment on CAKI-1 renal and with NCI-H460 lung was above 100 µM throughout. The GI50 in the experiment on ACHN renal, with MALME-3M melanoma, in the experiment with U251 CNS and in the experiment with SF-295 CNS was above 100 µM throughout. In addition, the TGI with CCRF-CEM leukemia, in the experiment on EKVX NSCLC, in the experiment with HT29 colon, with A549 NSCLC, in the experiment with CAKI-1 renal and with NCI-H460 lung was above 100 µM each time. The TGI with ACHN renal, with MALME-3M melanoma, in the experiment with U251 CNS and in the experiment on SF-295 CNS was above 100 µM throughout.
On to `COc1ccc(Sc2[nH]c(C(C)=O)c3ccccc23)cc1`, for which the GI50 in the experiment with CCRF-CEM leukemia is 14.3 µM; with EKVX NSCLC, 8.13 µM; in the experiment on HT29 colon, 15.4 µM; in the experiment with A549 NSCLC, 4 µM; with CAKI-1 renal it was 2.86 µM; with NCI-H460 lung, 7.41 µM. For the same molecule, the GI50 with ACHN renal is 16.5 µM; in the experiment on MALME-3M melanoma, 17.8 µM; in the experiment with U251 CNS, 11.9 µM; in the experiment on SF-295 CNS it was 11.6 µM. Further, the TGI was 40 µM with CCRF-CEM leukemia; 26 µM with EKVX NSCLC; 30.7 µM in the experiment on HT29 colon; 51.3 µM in the experiment on A549 NSCLC; 24 µM in the experiment with CAKI-1 renal; 20.6 µM in the experiment with NCI-H460 lung. Also, the TGI amounted to 49.6 µM in the experiment with ACHN renal, 51.3 µM with MALME-3M melanoma, 25.1 µM in the experiment on U251 CNS and 26.7 µM in the experiment with SF-295 CNS.
Turning to `COc1ccc(C2SC(N)=Nc3c2c(C)nn3C(=O)c2ccncc2)cc1OC` (centres undefined), the TGI with CCRF-CEM leukemia, in the experiment on EKVX NSCLC, in the experiment on HT29 colon, with A549 NSCLC, in the experiment on CAKI-1 renal and in the experiment with NCI-H460 lung was above 10 µM each time. Moreover, the TGI in the experiment on ACHN renal, in the experiment with MALME-3M melanoma, in the experiment with U251 CNS and in the experiment with SF-295 CNS was above 10 µM each time.
In the case of `CO/N=C(/C)c1cccc(Nc2cc(-n3nnc4ccccc43)nc3ccccc23)c1`, the GI50 in the experiment on CCRF-CEM leukemia was 20.7 µM; in the experiment with EKVX NSCLC, 27.3 µM; in the experiment with HT29 colon it was 11.8 µM; in the experiment on A549 NSCLC, 38.7 µM; in the experiment on CAKI-1 renal, 22.5 µM; in the experiment on NCI-H460 lung, 28 µM. Also, the GI50 with ACHN renal is 42.3 µM; in the experiment with MALME-3M melanoma it was 16.1 µM; with U251 CNS, above 100 µM; in the experiment with SF-295 CNS it was 15 µM. Besides, the TGI in the experiment on CCRF-CEM leukemia is above 100 µM; in the experiment with EKVX NSCLC, 86.2 µM; in the experiment on HT29 colon it was above 100 µM; with A549 NSCLC, above 100 µM; in the experiment with CAKI-1 renal, above 100 µM; in the experiment on NCI-H460 lung it was above 100 µM. The TGI in the experiment with ACHN renal is above 100 µM; in the experiment on MALME-3M melanoma, 58 µM; in the experiment with U251 CNS, above 100 µM; in the experiment with SF-295 CNS it was 64.1 µM.
Take `COc1ccc(OC)c2c1[nH]c(=O)c1c3ccccc3cn21`: the GI50 is 1.17 µM with CCRF-CEM leukemia; 1.34 µM in the experiment on EKVX NSCLC; 0.813 µM with HT29 colon; 1.02 µM in the experiment on A549 NSCLC; 1.09 µM with CAKI-1 renal; 1.1 µM in the experiment with NCI-H460 lung. For the same molecule, the GI50 was 1.11 µM in the experiment on ACHN renal, 1.78 µM in the experiment with MALME-3M melanoma, 1.37 µM in the experiment on U251 CNS and 1.25 µM with SF-295 CNS. The TGI came out at 3.81 µM in the experiment on CCRF-CEM leukemia; 3.76 µM in the experiment with EKVX NSCLC; 2.54 µM in the experiment with HT29 colon; 2.37 µM in the experiment with A549 NSCLC; 2.39 µM in the experiment on CAKI-1 renal; 2.73 µM with NCI-H460 lung. The TGI with ACHN renal was determined as 2.37 µM; in the experiment with MALME-3M melanoma, 3.32 µM; with U251 CNS it was 2.76 µM; with SF-295 CNS it was 2.7 µM.
Regarding `Cc1cn2c(=O)c3ncn(C4OC(CO)C(O)C4O)c3n(C)c2n1` (centres undefined), the TGI in the experiment on CCRF-CEM leukemia, in the experiment on EKVX NSCLC, in the experiment on HT29 colon, in the experiment with A549 NSCLC, in the experiment with CAKI-1 renal and with NCI-H460 lung was above 100 µM in each case. Further, the TGI with ACHN renal, in the experiment with MALME-3M melanoma, in the experiment with U251 CNS and in the experiment with SF-295 CNS was above 100 µM throughout.
